Patent publication US8217000B2, “Method for elevating prolactin in mammals” (Cara Therapeutics, Inc., priority 2006, dated 2012)
Counter-ions that a name gives are not always drawn. Non-standard residues stand in square brackets, D forms with d. Residues, ends and D or L forms follow the SMILES beside them. *: point of attachment. NH(4-picolyl) = c1cc(CN*)ccn1; dNle = CCCC[C@@H](N)C(=O)O

Assay: Plasma pharmacokinetics of CR665 after single IV infusion in human subjects
Conditions: for half-life / clearance / Vd / AUC(0-t) / AUC(0-inf) / Cmax / MRT / Tmax: human, plasma; for clearance: CL; for AUC(0-t): AUC0-t; for AUC(0-inf): AUC0-∞; for MRT: MRTint; for Tmax: median
Method: This clinical study was conducted as a double blind, placebo controlled, ascending single intravenous (IV) dose, sequential group study. This study was double blind and placebo controlled in order to avoid bias in the collection and evaluation of data during its conduct. […] In each group, subjects received CR665 or placebo. Doses were administered as a single constant rate IV infusion over 1 hour (part A) or 5 minutes (part B) on the morning of Day 1. Doses were administered in an escalating manner following satisfactory review of the safety data and pharmacokinetic data from the lower dose levels. There was a minimum of 6 days between dose escalations to allow sufficient time for an adequate safety review.
Plasma and urine samples for the analysis of CR665 and N oxide metabolite were prepared by solid phase extraction. The centrifuged eluates were quantified by liquid chromatography with tandem mass spectrometric detection (LC MS/MS). The lower limit of quantification was 1 ng/mL.
For pharmacokinetic assessments, blood samples (1×3 mL) were taken from the contralateral forearm vein(s) at the following times: Pre-dose, 15 minutes, 30 minutes, 45 minutes, 1 hour (immediately prior to the end of infusion), 1 hour 5 minutes, 1 hour 10 minutes, 1 hour 15 minutes, 1.5, 2, 2.5, 3, 4, 6, 8, 12, 16, 24, 36 and 48 hours after the start of the infusion). An indwelling cannula (Venflon®; BOC Ohmeda AB, Sweden) was used for all blood collection pre-dose and up to at least 12 hours after the start of the infusion. Otherwise, samples were collected using venipuncture. Blood samples were collected into pre-chilled 3 mL K3EDTA Vacutainer™ tubes (Becton Dickinson UK, Ltd., Oxford) and, after mixing, were placed in a cool box containing crushed ice/water. The samples were centrifuged, within 30 minutes of collection, at 1500 g for 10 minutes at approximately 4° C. For each sample, the separated plasma was transferred into two 5 mL suitably labeled polypropylene tubes, and stored immediately at approximately −20° C. Plasma samples were analyzed for CR665 using liquid chromatography with tandem mass spectrometric detection.
The pharmacokinetic analysis was conducted using WinNonlin Enterprise Version 4.0.1.
Pharmacokinetic parameters were determined from the plasma and urine, concentrations of CR665 and the N-oxide metabolite using non compartmental procedures.
Dose and body weight normalized values (norm) were determined for AUC0-t, AUC0-∞, Cinf and Cmax. Body weight normalized values [norm] were determined for Vz, Vss, CL and CLR.
The pharmacokinetic analysis was conducted using model independent methods as implemented in WinNonlin software, based on plasma concentrations of CR665 from those subjects who have received CR665 and have evaluable plasma concentration-time profiles.
The following plasma pharmacokinetic parameters were determined for CR665: • Cmax Maximum plasma concentration • tmax Time of maximum plasma concentration • t1/2z Terminal half-life=ln(2)/λz • AUC0-1 Area under the plasma concentration-time curve from time zero to time t (time of last quantifiable plasma concentration) • AUCinf Area under the plasma concentration-time curve from time zero to infinity calculated as [AUC0-t+(Clast/λz)] where Clast is the estimated concentration at the last quantifiable concentration curve. • λz Terminal-phase rate constant, also known as Kel • CL Total body clearance=Dose/AUCinf • Vz Volume of distribution based on terminal phase calculated as Vz/F=Dose/λz*AUCinf
Individual elapsed sampling times were used in the pharmacokinetic analysis. Cmax and tmax were obtained directly from the experimental observations. For the purpose of calculating AUC0-t, when two consecutive plasma concentrations below the lower limit of quantification (LLOQ) were encountered after tmax, all subsequent values were excluded from the analysis.

[1] = female, iv, 0.06 mg/kg, females, 5-minute IV infusion, geometric mean
[2] = female, iv, 0.24 mg/kg, females, 1-hour IV infusion, geometric mean
[3] = females, 0.24 mg/kg dose level as printed, Part B text
[4] = male, iv, 0.015 mg/kg, males, 1 hour IV infusion, geometric mean
[5] = male, iv, 0.03 mg/kg, males, 5-minute IV infusion, geometric mean
[6] = male, iv, 0.03 mg/kg, males, 1 hour IV infusion, geometric mean

SMILES: CCCC[C@@H](NC(=O)[C@@H](Cc1ccccc1)NC(=O)[C@H](N)Cc1ccccc1)C(=O)N[C@H](CCCNC(=N)N)C(=O)NCc1ccncc1 [CR665, D-phenylalanyl-D-phenylalanyl-D-norleucyl-N-(4-pyridinylmethyl)-D-argininamide, acetate salt] (H-[dF][dF][dNle][dR]-{NH(4-picolyl)})
- half-life (both, intravenous, 0.24 mg/kg, Mean terminal elimination half-life, male and female subjects, 1-hour infusion): 72 to 84 min
- clearance (female, intravenous, 0.06 mg/kg, geometric least squares mean, females, 5-minute infusion): 544 mL/min
- half-life (female, intravenous, 0.06 mg/kg, Mean terminal elimination half life, females, 5-minute infusion): ~48 min
- Vd (female, intravenous, 0.06 mg/kg, Vss, geometric least squares mean, females, 5-minute infusion): 14.1 L
- Vd (female, intravenous, 0.06 mg/kg, Vz, geometric least squares mean, females, 5-minute infusion): 45.7 L
- half-life (female, intravenous, 0.06 mg/kg, t1/2, geometric least squares mean, females, 5-minute infusion): 56.8 min
- clearance (female, intravenous, 0.24 mg/kg, geometric least squares mean, females, 1-hour infusion): 573 mL/min
- half-life (female, intravenous, 0.24 mg/kg, Mean terminal elimination half-life, females, 1-hour infusion): 72 min
- Vd (female, intravenous, 0.24 mg/kg, Vss, geometric least squares mean, females, 1-hour infusion): 17 L
- Vd (female, intravenous, 0.24 mg/kg, Vz, geometric least squares mean, females, 1-hour infusion): 50.2 L
- half-life (female, intravenous, 0.24 mg/kg, t1/2, geometric least squares mean, females, 1-hour infusion): 63 min
- AUC(0-t) [1]: 120 ng·h/mL
- AUC(0-inf) [1]: 122 ng·h/mL
- clearance [1]: 544 mL/min
- Cmax [1]: 520 ng/mL
- MRT [1]: 25.1 min
- Vd (female, iv, 0.06 mg/kg, Vss, females, 0.06 mg/kg, 5-minute IV infusion, geometric mean): 13.7 L
- Vd (female, iv, 0.06 mg/kg, Vz, females, 5-minute IV infusion, geometric mean): 39.2 L
- half-life (female, iv, 0.06 mg/kg, t1/2, females, 5-minute IV infusion, geometric mean): 50 min
- Tmax (female, iv, 0.06 mg/kg, females, 5-minute IV infusion): 5 min
- AUC(0-t) [2]: 440 ng·h/mL
- AUC(0-inf) [2]: 442 ng·h/mL
- clearance [2]: 557 mL/min
- Cmax [2]: 384 ng/mL
- MRT [2]: 30.9 min
- Vd (female, iv, 0.24 mg/kg, Vss, females, 0.24 mg/kg, 1-hour IV infusion, geometric mean): 17.2 L
- Vd (female, iv, 0.24 mg/kg, Vz, females, 1-hour IV infusion, geometric mean): 55.7 L
- half-life (female, iv, 0.24 mg/kg, t1/2, females, 1-hour IV infusion, geometric mean): 69.6 min
- Tmax (female, iv, 0.24 mg/kg, females, 1-hour IV infusion): 45 min
- AUC0-t (norm), ratio of geometric least squares means 5-minute:1-hour (females): 1.04
- AUC0-∞ (norm), ratio of geometric least squares means 5-minute:1-hour (females): 1.05
- CL, ratio of geometric least squares means 5-minute:1-hour (females): 0.950
- Cmax (norm), ratio of geometric least squares means 5-minute:1-hour (females): 5.27
- Cmax, fold higher for the 5-minute compared to the 1-hour infusion (females): 5.3 fold
- MRTint, ratio of geometric least squares means 5-minute:1-hour (females): 0.864
- Vss, ratio of geometric least squares means 5-minute:1-hour (females): 0.832
- Vz, ratio of geometric least squares means 5-minute:1-hour (females): 0.911
- t1/2, ratio of geometric least squares means 5-minute:1-hour (females): 0.901
- Between-subject variability (CV %) for AUC0-∞ [3]: 8.8%
- Between-subject variability (CV %) for Cmax [3]: 18.8%
- MRTint, geometric least squares mean (females, 1-hour infusion): 29.9 min
- MRTint, geometric least squares mean (females, 5-minute infusion): 25.8 min
- half-life (intravenous, Apparent elimination half life, individual subjects, males, 0.12 to 0.48 mg/kg, 1 hour infusion): 72 to 180 min
- Vd (male, intravenous, Apparent volume of distribution at steady state (VSS), males, 0.12 to 0.48 mg/kg dose range): 19 to 23 L
- clearance (male, intravenous, geometric least squares mean, males, 1-hour infusion, Parts A & B): 557 mL/min
- clearance (male, intravenous, geometric least squares mean, males, 5-minute infusion, Parts A & B): 538 mL/min
- half-life (male, intravenous, Mean apparent elimination half life, males, 0.015 to 0.06 mg/kg, 1 hour infusion): ~42 min
- half-life (male, intravenous, Mean apparent elimination half life, males, 0.03 to 0.09 mg/kg, 5-minute infusion): 60 to 78 min
- half-life (male, intravenous, Mean apparent elimination half life, males, 0.12 to 0.48 mg/kg, 1 hour infusion): 84 to 114 min
- Vd (male, intravenous, Vss, geometric least squares mean, males, 1-hour infusion, Parts A & B): 20.1 L
- Vd (male, intravenous, Vss, geometric least squares mean, males, 5-minute infusion, Parts A & B): 18.1 L
- Vd (male, intravenous, Vz, geometric least squares mean, males, 1-hour infusion, Parts A & B): 59.1 L
- Vd (male, intravenous, Vz, geometric least squares mean, males, 5-minute infusion, Parts A & B): 61 L
- half-life (male, intravenous, t1/2, geometric least squares mean, males, 1-hour infusion, Parts A & B): 75 min
- half-life (male, intravenous, t1/2, geometric least squares mean, males, 5-minute infusion, Parts A & B): 76.8 min
- AUC(0-t) [4]: 30 ng·h/mL
- AUC(0-inf) [4]: 31.4 ng·h/mL
- clearance [4]: 560 mL/min
- Cmax [4]: 27.8 ng/mL
- MRT [4]: 30.7 min
- Vd (male, iv, 0.015 mg/kg, Vss, males, 0.015 mg/kg, 1 hour IV infusion, geometric mean): 17.2 L
- Vd (male, iv, 0.015 mg/kg, Vz, males, 1 hour IV infusion, geometric mean): 33.5 L
- half-life (male, iv, 0.015 mg/kg, t1/2, males, 1 hour IV infusion, geometric mean): 41.5 min
- Tmax (male, iv, 0.015 mg/kg, males, 1 hour IV infusion): 60 min
- AUC(0-t) [5]: 65.9 ng·h/mL
- AUC(0-t) [6]: 70 ng·h/mL
- AUC(0-inf) [5]: 68.4 ng·h/mL
- AUC(0-inf) [6]: 72.5 ng·h/mL
- clearance [5]: 473 mL/min
- clearance [6]: 538 mL/min
- Cmax [5]: 233 ng/mL
- Cmax [6]: 65.3 ng/mL
- MRT [5]: 36.9 min
- MRT [6]: 30.6 min
- Vd (male, iv, 0.03 mg/kg, Vss, males, 0.03 mg/kg, 5-minute IV infusion, geometric mean): 17.4 L
- Vd (male, iv, 0.03 mg/kg, Vss, males, 0.03 mg/kg, 1 hour IV infusion, geometric mean): 16.5 L
- Vd (male, iv, 0.03 mg/kg, Vz, males, 5-minute IV infusion, geometric mean): 53.6 L
- Vd (male, iv, 0.03 mg/kg, Vz, males, 1 hour IV infusion, geometric mean): 34.1 L
- half-life (male, iv, 0.03 mg/kg, t1/2, males, 5-minute IV infusion, geometric mean): 78.6 min
- half-life (male, iv, 0.03 mg/kg, t1/2, males, 1 hour IV infusion, geometric mean): 43.9 min
- Tmax (male, iv, 0.03 mg/kg, males, 5-minute IV infusion): 5 min
- Tmax (male, iv, 0.03 mg/kg, males, 1 hour IV infusion): 60 min
- AUC(0-t) (male, iv, 0.06 mg/kg, males, 5-minute IV infusion, geometric mean): 139 ng·h/mL
- AUC(0-t) (male, iv, 0.06 mg/kg, males, 1 hour IV infusion, geometric mean): 129 ng·h/mL
